Experimental data as given in publication PMC12655445, “In Vitro and In Vivo Effects of Resveratrol on Rat Hepatic CYP1A2” (Pharmaceuticals, 2025).

B1: human recombinant CYP1A2 (Homo sapiens) (protein)
chain: ALSQSVPFSATELLLASAIFCLVFWVLKGLRPRVPKGLKSPPEPWGWPLLGHVLTLGKNPHLALSRMSQRYGDVLQIRIGSTPVLVLSRLDTIRQALVRQGDDFKGRPDLYTSTLITDGQSLTFSTDSGPVWAARRRLAQNALNTFSIASDPASSSSCYLEEHVSKEAKALISRLQELMAGPGHFDPYNQVVVSVANVIGAMCFGQHFPESSDEMLSLVKNTHEFVETASSGNPLDFFPILRYLPNPALQRFKAFNQRFLWFLQKTVQEHYQDFDKNSVRDITGALFKHSKKGPRASGNLIPQEKIVNLVNDIFGAGFDTVTTAISWSLMYLVTKPEIQRKIQKELDTVIGRERRPRLSDRPQLPYLEAFILETFRHSSFLPFTIPHSTTRDTTLNGFYIPKKCCVFVNQWQVNHDPELWEDPSEFRPERFLTADGTAINKPLSEKMMLFGMGKRRCIGEVLAKWEIFLFLAILLQQLEFSVPPGVKVDLTPIYGLTMKHARCEHVQARLRFSIN
notes: human CYP1A2 expressed with NADPH P450 reductase in Escherichia coli DH5α; bacterial membranes; with NADPH P450 reductase

Columns and labels:
[1] = target: T1, rat liver microsomal CYP1A2 (Rattus norvegicus, UniProt P04799); assay: MROD fluorescence assay in rat liver microsomes, inhibition kinetics (IC50 […]); format: biochemical
T1 construct: rat liver microsomes
T1 sequence (P04799 2-513): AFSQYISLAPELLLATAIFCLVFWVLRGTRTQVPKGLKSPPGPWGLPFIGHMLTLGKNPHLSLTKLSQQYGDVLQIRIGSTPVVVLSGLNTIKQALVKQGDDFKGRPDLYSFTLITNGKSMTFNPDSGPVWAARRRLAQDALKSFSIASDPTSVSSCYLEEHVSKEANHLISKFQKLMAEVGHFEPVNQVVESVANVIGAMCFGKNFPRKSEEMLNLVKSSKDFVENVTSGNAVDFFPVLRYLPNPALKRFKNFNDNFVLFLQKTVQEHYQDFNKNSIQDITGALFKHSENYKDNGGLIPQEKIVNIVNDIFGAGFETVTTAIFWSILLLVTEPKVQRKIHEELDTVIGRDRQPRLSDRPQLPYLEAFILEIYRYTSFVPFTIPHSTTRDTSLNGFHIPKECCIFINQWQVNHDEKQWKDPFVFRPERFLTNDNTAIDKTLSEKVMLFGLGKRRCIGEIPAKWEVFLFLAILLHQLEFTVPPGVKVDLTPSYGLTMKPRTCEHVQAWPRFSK

[2] = substrate: COc1ccc2nc3ccc(=O)cc-3oc2c1; assay: MROD kinetics with recombinant CYP1A2 membranes; value is Km; format: biochemical, Homo sapiens; details: heme; NADPH

Molecule | Ki [1] [µM] | Km [2] [µM]
Oc1ccc(/C=C/c2cc(O)cc(O)c2)cc1 [RSV, trans-3,4′,5-trihydroxystilbene] | 49.1 | 
B1 |  | 1.67
